This assay addresses Src (Homo sapiens, UniProt P12931). In words: cell-free ADP-Glo Src kinase assay (Promega). The class given is biochemical.

Broadly, the IC50 is the point on the concentration scale where inhibition reaches its midpoint. A high value points to a need for much substance.

Chain of Src (P12931 2-536): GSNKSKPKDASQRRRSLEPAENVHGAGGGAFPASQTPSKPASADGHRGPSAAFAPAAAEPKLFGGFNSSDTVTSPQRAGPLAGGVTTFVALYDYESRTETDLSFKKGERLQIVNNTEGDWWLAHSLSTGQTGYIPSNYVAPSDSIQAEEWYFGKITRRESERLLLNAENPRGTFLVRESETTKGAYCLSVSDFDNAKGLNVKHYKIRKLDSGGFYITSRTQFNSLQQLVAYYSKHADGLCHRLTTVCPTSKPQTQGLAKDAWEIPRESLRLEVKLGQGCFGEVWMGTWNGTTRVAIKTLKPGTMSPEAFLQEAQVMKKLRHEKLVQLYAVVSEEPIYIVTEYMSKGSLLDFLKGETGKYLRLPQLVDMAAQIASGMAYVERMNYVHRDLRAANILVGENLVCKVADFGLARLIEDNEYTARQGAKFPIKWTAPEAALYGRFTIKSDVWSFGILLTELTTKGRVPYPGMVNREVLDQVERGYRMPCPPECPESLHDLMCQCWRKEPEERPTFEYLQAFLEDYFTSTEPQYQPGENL

`O=C(/C=C/c1ccc(O)cc1O)c1ccc(O)cc1O` [THC, 2,4, 2′, 4′-tetrahydroxychalcone]: the IC50 stood at 1440 nM.

The values are drawn from article PMC6171243, “Suppression of lung cancer progression by isoliquiritigenin through its metabolite 2, 4, 2’, 4’-Tetrahydroxychalcone” (Journal of Experimental & Clinical Cancer Research : CR, 2018).
